Laboratory results: patent publication US12023345B2, “Compositions and methods for treating lysosomal disorders” (RUSH UNIVERSITY MEDICAL CENTER, priority 2014, dated 2024)

Experiments:
Type in all cases: cell-based
Lamp2, Limp2 and Npc1 = assay: mRNA of lysosomal genes by real-time PCR in mouse primary astrocytes; conditions: 5 μM aspirin, serum-free
Protocol: Quantitative Real-Time PCR: The mRNA quantification was performed using the ABIPrism7700 sequence detection system (Applied Biosystems, Foster City, CA) using SYBR Select master mix (Applied Biosystems). The mRNA expression of the targeted genes was normalized to the level of Gapdh mRNA and data was processed by the ABI Sequence Detection System 1.6 software.

Tfeb = assay: TFEB mRNA by semi-quantitative RT-PCR in mouse primary astrocytes; conditions: different concentrations, 5 hr, serum-free
Protocol: Semi-Quantitative Reverse Transcriptase-Coupled Polymerase Chain Reaction (RT-PCR): Total RNA was isolated from mouse primary astrocytes and human primary astrocytes using RNA-Easy Qiagen (Valencia, CA) kit following manufactures protocol. Semi-quantitative RTPCR was carried out as described earlier (28) using oligo (dT) 12-18 as primer and moloney murine leukemia virus reverse transcriptase (MMLV-RT, Invitrogen) in a 20 μl reaction mixture. The resulting cDNA was appropriately amplified using Promega Master Mix (Madison, WI) and the following primers (Invitrogen) for murine genes: […]
Amplified products were electrophoresed on 2% agarose (Invitrogen) gels and visualized by ethidium bromide (Invitrogen) staining. Glyceraldehyde-3-phosphate dehydrogenase (Gapdh) mRNA was used as a loading control to ascertain that an equivalent amount of cDNA was synthesized from each sample.
Mouse primary astrocytes were incubated with different concentrations (see FIG. 9) of simvastatin and pravastatin (A), (B), cinnamic acid (C), and sodium phenylbutyrate and sodium benzoate (D) for 5 hr. under serum-free condition followed by monitoring the mRNA expression of TFEB by semi-quantitative RT-PCR. Sodium formate (D) was used as a negative control for sodium phenylbutyrate and sodium benzoate.

LAMP2 = LAMP2 protein by Western blot and immunocytochemistry in mouse primary brain cells; conditions: for level of LAMP2 (Western blot): different doses of aspirin
Protocol: Immunostaining of Cells: Immunocytochemistry was performed as described earlier (29). Briefly, 8 well chamber slides containing mouse primary astrocytes, mouse neurons were cultured to 70-80% confluence were fixed with chilled Methanol (Fisher Scientific, Waltham, MA) overnight, followed by two brief rinses with filtered PBS. Samples were blocked with 2% BSA (Fisher Scientific) in PBS containing Tween 20 (Sigma) and Triton X-100 (Sigma) for 30 min and incubated at room temperature under shaking conditions for 2 hr in PBS containing the following anti-mouse primary antibodies: TFEB (1:1000; Abcam), GFAP, (1:1000; DAKO), LAMP2 (1:500, Abcam), NeuN (1:500, Millipore), and MAP2 (1:200, Millipore). […] Following four 15 minute washes with filtered PBS, cells were incubated for 4-5 min with 4′, 6-diamidino-2-phenylindole (DAPI, 1:10,000; Sigma). The samples were run in an EtOH and Xylene (Fisher) gradient, mounted, and observed under Olympus BX41 fluorescence microscope.
Immunoblotting: Western blotting was conducted as described earlier (31, 32) with modifications. Briefly, cells were scraped in 1× RIPA buffer, protein was measured using Bradford reagent and sodium dodecyl sulfate (SDS) buffer was added and electrophoresed on NuPAGE® Novex® 4-12% Bis-Tris gels (Invitrogen) and proteins transferred onto a nitrocellulose membrane (Bio-Rad) using the Thermo-Pierce Fast Semi-Dry Blotter.
The membrane was then washed for 15 min in TBS plus Tween 20 (TBST) and blocked for 1 hr in TBST containing BSA. Next, membranes were incubated overnight at 4° C. under shaking conditions with the following 1° antibodies; TFEB (1:1000, Abcam), LAMP2 (1:500, Abcam) and β-actin (1:800; Abcam, Cambridge, MA). The next day, membranes were washed in TBST for 1 hr, incubated in 2° antibodies against 1° antibody hosts (all 1:10,000; Jackson ImmunoResearch) for 1 hr at room temperature, washed for one more hour and visualized under the Odyssey® Infrared Imaging System (Li-COR, Lincoln, NE).

[1] = test system: Tfeb promoter (pTFEB-Luc); assay: Tfeb promoter-driven luciferase reporter activity in mouse primary astrocytes; conditions: p(WT)Tfeb-Luc, different doses of aspirin, 4 h
Excerpt: Construction of Mouse Tfeb Promoter-driven Reporter Construct: Mouse genomic DNA isolated from primary mouse astrocytes was used as the template during PCR. The 5′ flanking sequence of the mouse TFEB (−916/+61) gene was isolated by PCR. Primers were designed from gene bank sequences. Tfeb: sense: 5′- acgcgt CCAGGAGCCAGGGACGGGGTACATCTC -3′ (SEQ ID NO.: 11); antisense: 5′- agatct AAGGAGAAACTGAGTCCGGGCAGAAGG -3′ (SEQ ID NO.: 12). The sense primer was tagged with an Mlu1 restriction enzyme site while the antisense primer was tagged with Bgl II. The PCR was performed using an Advantage-2 PCR kit (Clontech) according to the manufacturer's instruction. The resulting fragments were gel purified and ligated into the PGEM-TEasy vector (Promega). These fragments were further subcloned into the PGL-3 Enhancer vector after digestion with corresponding restriction enzymes and verification by sequencing ACGT Inc. DNA Sequencing Services. […]
Assay of Tfeb Promoter-driven Reporter Activity: Cells plated at 50-60% confluence in 12-well plates were cotransfected with 0.25 μg of pTFEB(WT)-Luc, pTFEB(Mu)-Luc and using Lipofectamine Plus (Invitrogen). […] Firefly luciferase activities were analyzed in cell extracts using the Luciferase Assay System kit (Promega) in a TD-20/20 Luminometer (Turner Designs) as described earlier (33, 34).

Q: What does the source list for `CC(=O)Oc1ccccc1C(=O)O` [aspirin]?
A: LAMP2 mRNA expression (real-time PCR), time course (Lamp2, Limp2 and Npc1): time-dependent increase in LAMP2 mRNA; TFEB mRNA expression (semi-quantitative RT-PCR) (Tfeb): upregulation of TFEB mRNA expression; level of LAMP2 (Western blot) (LAMP2; PPARα (−/−) astrocytes, 24 h): not PPARα (−/−); level of LAMP2 (Western blot) (LAMP2; PPARβ (−/−) astrocytes, 24 h): dose-dependently increased the level of LAMP2; level of LAMP2 (Western blot) (LAMP2; WT astrocytes, 24 h): dose-dependently increased the level of LAMP2; LAMP2 protein expression (Western blot), time course (LAMP2; astrocytes, 5 μM aspirin, serum-free): time-dependent increase; LAMP2 protein expression (Western blot), dose (LAMP2; astrocytes, aspirin 2 and 5 μM, 24 h): increase in LAMP2 protein expression; Tfeb promoter driven luciferase activity [1]: induced Tfeb promoter driven luciferase activity
